The values that follow come from ChEMBL document CHEMBL1759934, “Virtual screening-driven identification of human carbonic anhydrase inhibitors incorporating an original, new pharmacophore” (Bioorg Med Chem Lett, 2011).

The target in one assay is Carbonic anhydrase 1 (Homo sapiens, UniProt P00915). The experiment in a line: Inhibition of human carbonic anhydrase 1 after 6 hrs by Lineweaver-Burk plot analysis.
In the next assay the target is Carbonic anhydrase 2 (Homo sapiens, UniProt P00918). The experiment in a line: Inhibition of human carbonic anhydrase 2 after 6 hrs by Lineweaver-Burk plot analysis.

Chain of Carbonic anhydrase 1 (P00915 whole entry): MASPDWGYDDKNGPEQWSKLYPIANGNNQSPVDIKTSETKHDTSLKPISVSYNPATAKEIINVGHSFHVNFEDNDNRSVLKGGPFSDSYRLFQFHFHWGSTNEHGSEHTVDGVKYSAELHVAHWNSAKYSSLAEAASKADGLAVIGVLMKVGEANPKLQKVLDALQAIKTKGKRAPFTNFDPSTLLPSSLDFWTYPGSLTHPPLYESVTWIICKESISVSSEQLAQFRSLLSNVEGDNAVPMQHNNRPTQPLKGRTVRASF

Take `Cc1ccc(C(=O)C(O)(O)C(F)(F)F)cc1`: the Ki (in general, a dissociation constant, usually derived from enzyme kinetics or from competition with a known ligand) at Carbonic anhydrase 1 turned out to be 410 µM; on Carbonic anhydrase 2 it was 9 µM.
